{"source": "patent US6379714B1", "about": "“Pharmaceutical grade botanical drugs” (priority 1995, dated 2002)", "key": {"[1]": {"tested_on": "C3H Mammary adenocarcinoma 16/C", "experiment": "Growth of subcutaneous transplants of C3H mammary adenocarcinoma 16/C in mice", "assay_type": "in vivo, B6C3F1 hybrid female mice", "conditions": "5-Fluorouracil 98 mg/kg, i.p., qd (1, 7, 14, 21)", "description": "Anticancer activities of T4GEN and n-T4GEN were studied in animals bearing subcutaneous transplants of C3H Mammary adenocarcinoma 16/C. This tumor is maintained as a lung passed tumor in C3H female mice. In this example, tumors (1×10^6 cells) were transplanted (S.C.) in 18-20 g B6C3F1 hybrid female mice. On the following day, the tumor bearing animals were randomized and separated into different treatment groups (10 mice per group). There were 15 animals in the control group who received only physiological saline during the treatment periods. […] Animals were weighed on days 5, 9 and 14 to assess toxic effects. Tumors were measured on days 21, 28 post transplants and the results are represented as tumor weights using formula [formula]\n(I=length of tumor, w=width of tumor expressed in mm)."}, "[2]": {"experiment": "Body weight change of tumor bearing mice (toxic effects)", "assay_type": "in vivo, B6C3F1 hybrid female mice", "conditions": "5-Fluorouracil 98 mg/kg, i.p., qd (1, 7, 14, 21)", "description": "Anticancer activities of T4GEN and n-T4GEN were studied in animals bearing subcutaneous transplants of C3H Mammary adenocarcinoma 16/C. This tumor is maintained as a lung passed tumor in C3H female mice. In this example, tumors (1×10^6 cells) were transplanted (S.C.) in 18-20 g B6C3F1 hybrid female mice. On the following day, the tumor bearing animals were randomized and separated into different treatment groups (10 mice per group). There were 15 animals in the control group who received only physiological saline during the treatment periods. The treatments (i.p.) were started 48 hours after the transplants and given for a duration of 14 days (daily single injections). Animals were weighed on days 5, 9 and 14 to assess toxic effects. Tumors were measured on days 21, 28 post transplants and the results are represented as tumor weights using formula [formula]"}}}
{"molecule": "O=c1[nH]cc(F)c(=O)[nH]1", "note": "[5-Fluorouracil]", "values": [{"measurement": "Tumor Free Animals (day 93)", "setting": "[1]", "value": "0/6"}, {"measurement": "Tumor Wts (day 21)", "setting": "[1]", "value": 0.00}, {"measurement": "Tumor Weight Inhibition %", "setting": "[1]; day 21", "value": 100, "unit": "%"}, {"measurement": "ΔWts (g) (day 14)", "setting": "[2]", "value": "+1.77 g"}]}
